Literature values in patent US5922690A (priority 1997, dated 1999).

Test system: rabbits
Conditions: in vivo

Multiple of the antithrombotic dose injected without increasing bleeding (rabbit)	Bleeding from a standardized incision in a rabbit's ear, heparin versus DS	Substance
up to forty times	–	dermatan sulfate [DS]
–	much greater	heparin
